# Measured values: patent US10137185B2, “PAP peptide analogues” (THE NOTTINGHAM TRENT UNIVERSITY, priority 2014, dated 2018)
# Tested on: PBMCs from HLA-A2 positive patients with prostate cancer and individuals with benign disease
# Experiment: IFNγ ELISPOT of PBMCs from prostate cancer patients and individuals with benign disease after peptide re-stimulation
# Format: cell-based, human
# Experimental: FIG. 3. IFNγ response of peripheral blood mononuclear cells (PBMCs) isolated from patients with prostate cancer and individuals with benign disease after re-stimulation with PAP-115-123 epitope using an ELISPOT assay. Cryopreserved PBMCs from ten HLA-A2 positive prostate cancer patients and ten benign candidates were compared. The PBMCs were cultured in vitro with 5 μg of PAP-114-128 epitope for 7 days. The cells were then washed and rested overnight and 4×10^4 cells were added to each well of an ELISPOT plate. PAP-115-123 epitope peptide (1 μg) was added per well and cells cultured for 48 hours. The plates were then washed according to the manufacturer's protocol. PBMCs with no added peptide were used as control. Comparisons of means (±SEM) between groups (cells pulsed with PAP-115-123 or no peptide) are made using an unpaired t test.
# FIG. 12. IFNγ responses generated by PBMCs isolated from 10 patients with prostate cancer and 10 individuals with benign disease after re-stimulation with the PAP-115-123 analogue epitope peptide, as determined using an ELISPOT assay. PBMCs were cultured in vitro with 5 μg of PAP-114-128 analogue epitope for 7 days. The cells were then washed and rested overnight, at which time and 4×10^4 cells were added to each well of an ELISPOT plate. PAP-115-123 analogue epitope peptide (1 μg) was added to each well and the cells were cultured for 48 hours. The plates were then washed according to the manufacturer's protocol. PBMCs cultured with no added peptide were used as the control. Comparisons of means (±SEM) between groups (PBMCs pulsed with PAP-115-123 analogue or no peptide) are made using an unpaired t test.
# To determine the presence of circulating T cells specific for PAP-115-123 in humans, PBMCs from HLA-A2 positive patients with prostate cancer and individuals with benign disease were used. Cryopreserved PBMCs were thawed, washed and restimulated for 7 days with […] epitope peptide. The cells were then washed and rested overnight, at which time 4×10^4 cells were added to each well of an ELISPOT plate. PAP-115-123 epitope peptide (1 μg) was added to each well and the cells cultured for 48 hours. The plates were developed according to the manufacturer's instructions. PBMCs cultured with no peptide were used as controls. […] The number of IFNγ spots generated by PBMCs from one of the patients was as high as 220 (vs 60 spots for the control). The number of spots generated by PBMCs for the other 6 patients with prostate cancer ranged between 50 and 100 (vs 10-20 in controls). Although some of the PBMCs from individuals with benign disease generated 50-100 spots, the number of spots in the control wells was also high.
# To determine the presence of circulating T cells specific for PAP-115-123 analogue peptide in humans, PBMCs from HLA-A2 positive patients with prostate cancer and individuals with benign disease were used. Cryopreserved PBMCs were thawed, washed and restimulated for 7 days with […] analogue epitope. The cells were then washed and rested overnight, at which time 4×10^4 cells were added to each well of an ELISPOT plate. 1 μg of PAP-115-123 analogue epitope was added to each well and cells were cultured for 48 hours. The plates were developed as per the manufacturer's instructions. PBMCs cultured with no peptide were used as control. […] The number of IFNγ spots in one of the patients was as high as 180 spots compared to control (54 spots). Similar response was also obtained when PBMCs were co-cultured with PAP-115-123 epitope (FIG. 3). The number of spots generated by PBMCs from the 6 patients with prostate cancer patients ranged between 50 and 100 (vs 10-20 in control wells). Although some of the samples from individuals with benign disease generated 50-100 spots, the number of spots in the control wells was also high.
sequence,measurement,setting,value
SAMTNLAAL [PAP-115-123],"number of spots, other 6 patients with prostate cancer","1 μg peptide, 4×10^4 cells per well, 10-20 in controls",50-100 spots
same,"number of spots, some PBMCs from individuals with benign disease","1 μg peptide, spots in control wells also high",50-100 spots
same,peptide-specific IFNγ response in samples from individuals with benign disease,"10 benign individuals, 1 μg peptide",no PAP-115-123 specific IFNγ response and none
same,PBMC samples from patients with prostate cancer with peptide-specific IFNγ response,"of 10 samples, 7 days re-stimulation with the 15-mer, then 1 μg peptide, 48 hours, vs no peptide",7
same,"number of IFNγ spots, highest patient","one prostate cancer patient, 1 μg peptide, 4×10^4 cells per well, 48 hours",220 spots
